The record followed here is article PMC2909366 (Journal of biological inorganic chemistry : JBIC : a …, 2010).

By Kd is commonly meant a measure of binding affinity in units of concentration.

In experiment [1] the target is T1, chlorite dismutase (Cld) (Dechloromonas aromatica (nom. nud.), UniProt Q47CX0). Nature of the experiment: biochemical.
Experiment [2] addresses T1, chlorite dismutase (Cld). Nature of the experiment: X-ray co-crystal structure. It counts as binding.

T1 sequence (Q47CX0 35-282): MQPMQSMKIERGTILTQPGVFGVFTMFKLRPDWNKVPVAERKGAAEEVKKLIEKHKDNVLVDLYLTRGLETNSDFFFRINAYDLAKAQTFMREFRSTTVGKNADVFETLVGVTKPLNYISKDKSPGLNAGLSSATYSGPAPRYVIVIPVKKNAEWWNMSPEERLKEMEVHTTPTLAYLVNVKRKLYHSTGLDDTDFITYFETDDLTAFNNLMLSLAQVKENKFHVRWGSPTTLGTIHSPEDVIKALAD

In experiment [1], `CC(=O)O` [acetate] returned a Kd of 36 mM.
For the molecule `O=NO` [nitrite], in experiment [2], the Kd came to 1.12 mM.
